Assay results reported in the NIST ThermoML archive (doi:10.1016/j.jct.2015.11.006).
± gives the expanded uncertainty stated by the source.

Assay: refractive index (Na D-line) (dimensionless)
Conditions: 298.15 K; 101.33 kPa; Liquid; Standard Abbe refractometry

Row | refractive index | SMILES
1 | 1.3591 ± 0.0005 | CCO [ethanol]
2 | 1.3756 ± 0.0005 | CC(C)O [propan-2-ol]
3 | 1.3326 ± 0.0005 | O [water]
